Values joined by “and” are separate entries in the source; they are usually repeats but may differ in a detail not shown here. Equal entries are not always repeated.
Key:
[1] = tested on: OVCAR-3/P19 tumor cells; assay: Example 6: NOD/SCID mice s.c. injected with OVCAR-3 tumor cells; assay type: in vivo, female NOD/SCID mice; set-up: Vol (tumor volume) Day 20 / Vol (tumor volume) Day 30 / Vol (tumor volume) Day 37: unit: cm^3
Procedure: 2×10^6 OVCAR-3/P19 tumor cells were s.c. injected into female NOD/SCID mice. The mice were treated as follows.
The treatment began with a mean tumor volume of 80 mm^3.
To level possible differences in tumor volume at the start of treatment in the individual groups and to make evident differences owing to the low absolute volumes in the treatment groups, the relative tumor volumes (RTV) have been analyzed. The relative tumor volume results from the ratio of the volume on day x and the tumor volume at the start of treatment in the same test animal. […] The tumor growth was stopped in group 2 after just 7 days. After 3 days of constant tumor volume a tumor regression began from day 30 (10th day of treatment) in the test animals treated with copper-melphalan.

[2] = tested on: murine renal cell carcinoma (RENCA) tumor cells applied orthotopically; assay: Example 4: orthotopic renal cell carcinoma model (RENCA), treatment Day 1-7; primary tumor, metastases, vessel density (anti-CD31); assay type: in vivo, Balb/c mouse; conditions: for Kidney weight / Lung weight / Number of intestinal lymph node metastases / Number of lung metastases: day 19; for Kidney weight / Lung weight / Number of intestinal lymph node metastases / Number of lung metastases / Kidney volume: individual animals; for Kidney volume: test ended day 19
Procedure: The tests were carried out on a murine renal cell carcinoma model (RENCA) of the Balb/c mouse. The tumor cells were applied orthotopically into the left-hand renal capsule of syngenic mice. The effect of the treatment carried out on a primary tumor (in the implanted kidney), metastases (predominantly in the lungs, spleen and intestinal lymph nodes) and vessel density were investigated.
After anesthesia by means of isoflurane narcosis (O2— flow approx. 2.0 l with 0.5-1.5% isoflurane) a small incision was made in the mouse's left flank. The kidney was prepared and presented free from the peritoneum. A 27 G needle was introduced via the lower kidney pole through to below the renal capsule with visual inspection, and […] in 70 μl aliquots respectively applied once. The occurrence of a visible liquid-filled blister between kidney parenchyma and renal capsule and the discoloration of the kidneys were regarded as criteria for successful application. The kidney was subsequently reset and the incision into the abdominal wall closed by means of fascia stitches and cutaneous stitches with absorbable stitching material. Five test groups with ten animals respectively were formed. Group 1 negative control, group 2 positive control melphalan (Glaxo), group 3 and 4 MOC melphalan 2.5 mg/kg and 5 mg/kg. In the case of group 5 an antiangiogenically effective substance was applied as the positive control. The start of treatment was fixed for day 1 post op. for Cu(melphalan)2. Treatment was carried out daily up to day seven (see treatment model). The test was ended after 19 days since, owing to their size, the control tumors required termination for ethical reasons.
• The implantation day was counted as day 0. • Duration of the test 19 days. • Number of animals at beginning of test 50, no animals died during the op.
After selecting the animals the tissues to be examined were quickly transferred into liquid nitrogen and then frozen at −80° C. 5-10 μm thick sections were prepared from the tissue parts. The preparations were immunohistochemically dyed with an anti-CD31 antibody (Pecam-1) and the number of vessels in the control and treatment groups counted. Two sections of each tumor with three areas respectively were used for counting the vessels.

[3] = tested on: murine renal cell carcinoma (RENCA) tumor cells applied orthotopically; assay: Example 3: murine renal cell carcinoma model (RENCA), substance Day 10-18; assay type: in vivo, Balb/c mouse; conditions: 5 and 7.5 mg/kg per day i.p., Day 10-18, findings Day 19
Procedure: Using a murine renal cell carcinoma model (RENCA) of the Balb/c mouse a test of the effectiveness of mel-Cu-mel was carried out on the primary tumor, the metastases and the vessel density. For this the tumor cells were applied orthotopically into the left-hand peri-renal capsule of syngenic mice, the administered dose per day of treatment being: 5 mg/kg mouse and 7.5 mg/kg mouse, 5 animals per dose plus 5 animals for solvent control. The anti-tumor agent according to the invention Cu(mel)2 was applied intraperitonial. The treatment model was as follows:
As a control 5 animals were used to which no active ingredient was administered and for comparison a group of 5 animals were administered melphalan alone.

[4] = Gr. 3, 7.5 mg/kg copper-melphalan i.p., individual animals
[5] = Gr. 3, 7.5 mg/kg copper-melphalan i.p., n = 8
[6] = Gr. 3, 7.5 mg/kg copper-melphalan i.p., n = 8, baseline
[7] = Gr. 3, 7.5 mg/kg copper-melphalan vs 5 mg/kg melphalan
[8] = Gr. 3, 7.5 mg/kg copper-melphalan vs 5 mg/kg melphalan, baseline
[9] = Gr. 3, 7.5 mg/kg copper-melphalan vs control (PBS)
[10] = Gr. 3, 7.5 mg/kg copper-melphalan vs control (PBS), baseline
[11] = Cu(melphalan)2 4.4 μmol/kg (2.5 mg/kg) i.p. Day 1-7
[12] = Cu(melphalan)2 8.8 μmol/kg (5 mg/kg/d) i.p. Day 1-7
[13] = dose of 2.5 mg/kg and 5 mg/kg, Day 1-7 i.p.

## N[C@@H](Cc1ccc(N(CCCl)CCCl)cc1)C(=O)[O-].N[C@@H](Cc1ccc(N(CCCl)CCCl)cc1)C(=O)[O-].O.O.[Cu+2] [Cu(melphalan)2]
[1]; 7.5 mg/kg copper-melphalan vs 5 mg/kg melphalan i.p.
  effectiveness compared with melphalan (RTV, FIG. 9): more effective than melphalan
[1]; 7.5 mg/kg i.p., 10th day of treatment, after 3 days of constant tumor volume
  day from which tumor regression began: 30 days
[1]; Gr. 3, 7.5 mg/kg copper-melphalan
  mice with tumor regression on day 37: 88%
[1]; Gr. 3, 7.5 mg/kg copper-melphalan i.p. days 21-37 every 2nd day, Day 20 = start of treatment (baseline), individual animals
  Vol (tumor volume) Day 20: 0.08 and 0.11 and 0.05 and 0.04 and 0.10 and 0.02 and 0.09 and 0.12
[1]; Gr. 3, 7.5 mg/kg copper-melphalan i.p., baseline, individual animals
  RTV (relative tumor volume) Day 20: 1.00
[1]; [4]
  RTV (relative tumor volume) Day 30: 1.63 and 1.36 and 2.20 and 1.75 and 1.90 and 2.50 and 1.78 and 1.83
  RTV (relative tumor volume) Day 37: 2.78 and 0.63 and 0.43 and 0.78 and 0.67 and 0.70 and 0.60 and 0.51
  Vol (tumor volume) Day 30: 0.13 and 0.15 and 0.11 and 0.07 and 0.19 and 0.05 and 0.16 and 0.22
  Vol (tumor volume) Day 37: 0.05 (3×) and 0.14 and 0.03 and 0.07 and 0.01 and 0.06
[1]; [5]
  RTV Day 30, mean: 1.87
  RTV Day 30, median: 1.81
  RTV Day 37, mean: 0.89
  RTV Day 37, median: 0.65
  Vol Day 30, mean: 0.14
  Vol Day 30, median: 0.14
  Vol Day 37, mean: 0.06
  Vol Day 37, median: 0.05
[1]; [6]
  RTV Day 20, mean: 1.00
  RTV Day 20, median: 1.00
  Vol Day 20, mean: 0.08
  Vol Day 20, median: 0.09
[1]; [7]
  RTV Day 30, mean in % of group 2: 82.1%
  RTV Day 30, median in % of group 2: 76.8%
  RTV Day 37, mean in % of group 2: 61.3%
  RTV Day 37, median in % of group 2: 45.7%
  Vol Day 30, mean in % of group 2: 80.6%
  Vol Day 30, median in % of group 2: 93.3%
  Vol Day 37, mean in % of group 2: 55.1%
  Vol Day 37, median in % of group 2: 63.4%
[1]; [8]
  RTV Day 20, mean in % of group 2: 100.0%
  RTV Day 20, median in % of group 2: 100.0%
  Vol Day 20, mean in % of group 2: 89.7%
  Vol Day 20, median in % of group 2: 113.3%
[1]; [9]
  RTV Day 30, mean in % of group 1: 31.5%
  RTV Day 30, median in % of group 1: 44.8%
  RTV Day 37, mean in % of group 1: 8.2%
  RTV Day 37, median in % of group 1: 8.0%
  Vol Day 30, mean in % of group 1: 37.6%
  Vol Day 30, median in % of group 1: 50.9%
  Vol Day 37, mean in % of group 1: 9.3%
  Vol Day 37, median in % of group 1: 7.0%
[1]; [10]
  RTV Day 20, mean in % of group 1: 100.0%
  RTV Day 20, median in % of group 1: 100.0%
  Vol Day 20, mean in % of group 1: 81.3%
  Vol Day 20, median in % of group 1: 113.3%
[1]; Mann-Whitney rank sum test, mean tumor volume p=0.021, mean RTV p=0.01
  statistical comparison of effectiveness with melphalan at end of treatment (day 37): statistically significant higher degree of effectiveness
Blue solid
  chemical stability: chemically stable
Investigations of kidney cell carcinoma and lung metastases formation
  effectiveness compared with melphalan: much more effective than melphalan
[2]; [11]
  Kidney weight: 0.78 gr and 2.00 gr and 0.81 gr and 0.38 gr and 1.58 gr and 1.02 gr and 1.28 gr and 1.06 gr and 1.15 gr and 0.29 gr
  Lung weight: 0.20 gr and 0.31 gr and 0.49 gr and 1.07 gr and 0.11 gr (2×) and 0.14 gr and 0.24 gr and 0.13 gr (2×)
  Number of intestinal lymph node metastases: 1 and 2 and 3 and 4 and 0 (5×) and 6
  Number of lung metastases: 378 and >750 (4×) and 9 and 49 and 29 and 3 and 570
  Kidney volume: 1.54 cm^3 and 2.2 cm^3 and 1.2 cm^3 and 0.96 cm^3 and 2.13 cm^3 and 1.53 cm^3 and 1.71 cm^3 (2×) and 1.80 cm^3 and 0.60 cm^3
[2]; [12]
  Kidney weight: 0.79 gr (2×) and 0.19 gr and 1.06 gr and 0.59 gr and 0.85 gr and 0.74 gr and 0.18 gr and 0.29 gr and 0.36 gr
  Lung weight: 0.14 gr (2×) and 0.16 gr and 0.15 gr and 0.11 gr and 0.21 gr and 0.31 gr and 0.22 gr and 0.18 gr and 0.13 gr
  Number of intestinal lymph node metastases: 0 (8×) and 4 and 2
  Number of lung metastases: 11 and 4 (2×) and 162 and 0 and 680 and 16 and 610 and 92 and 7
  Kidney volume: 1.24 cm^3 and 0.44 cm^3 and 1.5 cm^3 and 1.2 cm^3 and 1.33 cm^3 and 1.30 cm^3 and 1.12 cm^3 and 0.6 cm^3 and 0.64 cm^3 and 1.26 cm^3
[2]; approximately quarter-equimolar dose (2.5 mg/kg, 4.4 μmol/kg vs 16.4 μmol/kg melphalan)
  effectiveness compared with melphalan: Effectiveness comparable with melphalan
[2]; approximately semi-equimolar dose (5 mg/kg, 8.8 μmol/kg vs 16.4 μmol/kg melphalan)
  effectiveness compared with melphalan alone: better effectiveness than melphalan alone
[2]; [13]
  anti-metastatic effect, intestinal lymph node metastases: significant anti-metastatic effect
  anti-tumor effect (primary tumor): significant anti-tumor effect
[2]; dose of 5 mg/kg, Day 1-7 i.p.
  anti-metastatic effect, lung metastases: significant anti-metastatic effect
[3]
  kidney weight and kidney volume compared with the control (FIG. 5): significantly lower kidney weight and kidney volume
  lung weight compared with the control and with melphalan alone (FIG. 6): reduced

From patent publication US20090105206A1, “Copper Melphalan And Copper Tegafur As Anti-Tumor Agents” (priority 2004, published 2009)
